Experimental data: US20130343993A1, “RADIOLABELED 5-HT6 LIGANDS” (AbbVie Inc., priority 2012, published 2013)
pKi: −log10 of the molar value. Read-outs that look alike come from different tables or passages of the source. One block for each molecule: values may come before it.

Assays:
[1] = Rat PK (0.05 mg/kg, iv), plasma and brain levels; type: in vivo; conditions: for Free B/P Ratio: free brain concentration divided by free plasma concentration
[2] = target: T1, h-5-HT2A receptor (Homo sapiens, UniProt P28223); test: 5-HT2A receptor binding assay ([125I]-DOI displacement, CHO-K1 membranes); conditions: for Selectivity for 5-HT6 v. 5-HT2A: ratio of human 5-HT2A Ki to human 5-HT6 Ki
T1 construct: purchased Perkin Elmer ES-313-M400UA; host or cells: CHO-K1
T1 sequence (P28223 whole entry): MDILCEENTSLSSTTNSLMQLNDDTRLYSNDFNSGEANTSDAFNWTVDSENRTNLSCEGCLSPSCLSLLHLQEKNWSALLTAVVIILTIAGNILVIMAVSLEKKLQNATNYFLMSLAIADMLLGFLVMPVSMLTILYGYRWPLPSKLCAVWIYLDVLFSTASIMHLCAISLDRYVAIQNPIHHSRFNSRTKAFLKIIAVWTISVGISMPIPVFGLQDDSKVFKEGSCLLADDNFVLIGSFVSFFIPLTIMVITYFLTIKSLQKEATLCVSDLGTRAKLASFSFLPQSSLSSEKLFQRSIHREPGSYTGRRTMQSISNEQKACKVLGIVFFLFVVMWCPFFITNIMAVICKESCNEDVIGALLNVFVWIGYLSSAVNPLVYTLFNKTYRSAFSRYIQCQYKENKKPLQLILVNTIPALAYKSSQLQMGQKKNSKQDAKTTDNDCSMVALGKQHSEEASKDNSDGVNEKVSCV
Method: Cells from stable clonal cell lines expressing the corresponding receptor (5-HT6, 5-HT2A or 5-HT2B receptors) were washed with PBS with 0.02% EDTA. The cells were collected by centrifugation at 500 g for 10 min. at 4° C., washed with PBS and centrifuged (500 g, 10 min. 4° C.). The pellets were stored at −80° C. until use. For membrane preparation, the thawed cell pellet was resuspended in ice-cold sucrose buffer (0.25 M sucrose, 10 mM Hepes (pH 7.4), 1 mM Phenylmethylsulfonyl fluoride (PMSF) in DMSO, […] Pepstatin-A, 3 mM EDTA, 0.025% Bacitracin) and homogenized with a Branson Sonifier W-250 (Settings: Timer 4; Output Control 3; Duty Cycle constant; 2 to 3 cycles). Cell disruption was checked with the aid of a microscope. Remaining unbroken cells were pelleted at 1,000 g for 10 min. at 4° C. The sucrose buffer supernatant was then centrifuged at 60,000 g for 1 h at 4° C. (Beckman Ultrazentrifuge XL 80). The pellet was resuspended in 30 ml ice-cold Tris buffer (20 mM TRIS (pH 7.4), […] Pepstatin A, 0.1 mM PMSF, 3 mM EDTA) by pipetting through a 10 ml serological pipet and centrifuged for 1 h at 4° C. at 60,000 g. A final resuspension was performed in a small volume of ice-cold Tris buffer (see above) by pressing through a serological pipet followed by ultrasonic treatment with a Branson Sonifier W-250 (Settings: Timer 1; Output Control 3; Duty Cycle constant; 1 cycle). Protein concentration was determined (BCA-Kit; Pierce) and aliquots stored at −80° C. or in liquid nitrogen for long-term storage.
All receptor binding experiments were carried out in the corresponding assay buffer in a total volume of 200 μl in the presence of various concentrations of test compound (10^−5 M to 10^−9 M, tenfold serial dilution, duplicate determinations). The assays were terminated by filtration on polyethylenimine (PEI 0.1% or 0.3%) presoaked Packard Unifilter Plates (GF/C or GF/B) with a Tomtec MachIII U 96well-plate harvester. After the plates had been dried for 2 h at 55° C. in a drying chamber scintillation cocktail (BetaPlate Scint; PerkinElmer) was added. Radioactivity was measured in a Microbeta Trilux two hours after the addition of the scintillation mixture. Data derived from liquid scintillation counting were analyzed by iterative non-linear regression analysis with the use of the Statistical Analysis System (SAS): a program similar to “LIGAND” as described by Munson and Rodbard (Analytical Biochemistry 107, 220-239 (1980).
CHO-K1 cell membranes expressing h-5-HT2A receptor (Perkin Elmer ES-313-M400UA) were thawed, diluted in assay buffer (50 mM Tris-HCl, 5 mM MgCl2, 1 mM EGTA, pH 7.4) to a final membrane protein concentration of 25 μg/ml and homogenized by gentle vortexing. For the competition binding studies; 20 μl of varying concentrations of test compounds in assay buffer (or 20 μl of assay buffer), 80 μl of 0.1 nM [^125I]—R—O-DOI (2,5-dimethoxy-4-iodo-amphetamine) (Perkin Elmer NEX-255) were incubated with 100 μl of homogenized membranes (total volume 200 μl). Non-specific binding was determined in the presence of 10 μM (±)-DOI (Sigma D-101). After a 1 hr incubation at room temperature, the binding reaction was harvested (Tomtec Mach III U Harvester) through 96-well GF/C filter plates (Perkin Elmer) presoaked for 1 hr with 20 μl per well of 0.3% polyethylene-imine (PEI). Harvested plates were washed twice with ice-cold assay buffer and dried prior to addition of 35 μl scintillator (BetaplateScint, Perkin Elmer). The radioactivity was determined by liquid scintillation spectrometry in a MicroBeta (Perkin Elmer) plate counter.
Data derived from liquid scintillation counting were analyzed by iterative non-linear regression analysis with the use of the Statistical Analysis System (SAS): a program similar to “LIGAND” as described by Munson and Rodbard (Anal. Biochem. 1980, 107, 220-239). Fitting was performed according to formulae described by Feldman (Anal. Biochem. 1972, 48, 317-338). […]

[3] = target: T2, h-5-HT6 receptor (Homo sapiens, UniProt P50406); test: 5-HT6 receptor binding assay ([3H]-LSD displacement, HEK293 membranes)
T2 construct: expressed in transfected cells
T2 sequence (P50406 whole entry): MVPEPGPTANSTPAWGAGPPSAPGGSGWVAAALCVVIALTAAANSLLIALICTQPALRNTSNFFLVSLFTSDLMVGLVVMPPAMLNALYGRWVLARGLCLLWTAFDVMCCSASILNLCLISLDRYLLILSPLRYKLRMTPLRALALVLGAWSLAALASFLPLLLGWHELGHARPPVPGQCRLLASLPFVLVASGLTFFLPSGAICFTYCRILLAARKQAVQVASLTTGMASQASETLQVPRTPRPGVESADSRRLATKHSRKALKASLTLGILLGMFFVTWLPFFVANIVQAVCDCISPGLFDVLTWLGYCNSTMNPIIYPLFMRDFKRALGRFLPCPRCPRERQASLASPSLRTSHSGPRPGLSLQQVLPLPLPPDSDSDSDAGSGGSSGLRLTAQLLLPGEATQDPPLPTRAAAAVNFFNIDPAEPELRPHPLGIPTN
Method: The cells were collected by centrifugation at 500 g for 10 min. at 4° C., washed with PBS and centrifuged (500 g, 10 min. 4° C.). The pellets were stored at −80° C. until use. For membrane preparation, the thawed cell pellet was resuspended in ice-cold sucrose buffer (0.25 M sucrose, 10 mM Hepes (pH 7.4), 1 mM Phenylmethylsulfonyl fluoride (PMSF) in DMSO, […] Pepstatin-A, 3 mM EDTA, 0.025% Bacitracin) and homogenized with a Branson Sonifier W-250 (Settings: Timer 4; Output Control 3; Duty Cycle constant; 2 to 3 cycles). Cell disruption was checked with the aid of a microscope. Remaining unbroken cells were pelleted at 1,000 g for 10 min. at 4° C. […] Protein concentration was determined (BCA-Kit; Pierce) and aliquots stored at −80° C. or in liquid nitrogen for long-term storage.
(§1) All receptor binding experiments were carried out in the corresponding assay buffer in a total volume of 200 μl in the presence of various concentrations of test compound (10^−5 M to 10^−9 M, tenfold serial dilution, duplicate determinations). […] Radioactivity was measured in a Microbeta Trilux two hours after the addition of the scintillation mixture. […]
Data derived from liquid scintillation counting were analyzed by iterative non-linear regression analysis with the use of the Statistical Analysis System (SAS): a program similar to “LIGAND” as described by Munson and Rodbard (Anal. Biochem. 1980, 107, 220-239). […]

[4] = Rat microsome stability; type: in vitro ADME; conditions: rat microsomes, read-out: Rat microsome T1/2
[5] = target: 78 targets (CEREP) other than the 5-HT6 receptor; test: CEREP panel of 78 targets; type: binding; conditions: all but the 5-HT2B and 5-HT2A receptors, read-out: Ki at ancillary targets
[6] = target: T3, h-5-HT2B receptor (Homo sapiens, UniProt P41595); test: 5-HT2B receptor binding assay ([125I]-DOI displacement, CHO-K1 membranes)
T3 construct: purchased Perkin Elmer ES-314-M400UA; host or cells: CHO-K1
T3 sequence (P41595 whole entry): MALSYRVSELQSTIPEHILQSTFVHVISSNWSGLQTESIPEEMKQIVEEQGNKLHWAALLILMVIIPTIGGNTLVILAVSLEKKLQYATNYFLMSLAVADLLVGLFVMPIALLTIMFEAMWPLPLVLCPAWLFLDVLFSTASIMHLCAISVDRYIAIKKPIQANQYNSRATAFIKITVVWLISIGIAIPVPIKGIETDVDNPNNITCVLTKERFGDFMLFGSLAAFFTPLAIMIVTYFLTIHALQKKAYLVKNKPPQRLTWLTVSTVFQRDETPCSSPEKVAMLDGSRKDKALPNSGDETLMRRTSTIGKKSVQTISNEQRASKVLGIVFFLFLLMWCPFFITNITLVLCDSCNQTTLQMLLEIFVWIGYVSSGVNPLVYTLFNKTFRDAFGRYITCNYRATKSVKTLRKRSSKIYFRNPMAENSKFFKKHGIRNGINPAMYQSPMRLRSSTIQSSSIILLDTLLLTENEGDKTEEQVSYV
Method: Cells from stable clonal cell lines expressing the corresponding receptor (5-HT6, 5-HT2A or 5-HT2B receptors) were washed with PBS with 0.02% EDTA. The cells were collected by centrifugation at 500 g for 10 min. at 4° C., washed with PBS and centrifuged (500 g, 10 min. 4° C.). The pellets were stored at −80° C. until use. For membrane preparation, the thawed cell pellet was resuspended in ice-cold sucrose buffer (0.25 M sucrose, 10 mM Hepes (pH 7.4), 1 mM Phenylmethylsulfonyl fluoride (PMSF) in DMSO, […] Pepstatin-A, 3 mM EDTA, 0.025% Bacitracin) and homogenized with a Branson Sonifier W-250 (Settings: Timer 4; Output Control 3; Duty Cycle constant; 2 to 3 cycles). Cell disruption was checked with the aid of a microscope. Remaining unbroken cells were pelleted at 1,000 g for 10 min. at 4° C. The sucrose buffer supernatant was then centrifuged at 60,000 g for 1 h at 4° C. (Beckman Ultrazentrifuge XL 80). […] Protein concentration was determined (BCA-Kit; Pierce) and aliquots stored at −80° C. or in liquid nitrogen for long-term storage.
as §1

[7] = target: Rat 5-HT6 (Rattus norvegicus, UniProt P31388); test: Rat 5-HT6 binding
Chain of Rat 5-HT6 (P31388 whole entry): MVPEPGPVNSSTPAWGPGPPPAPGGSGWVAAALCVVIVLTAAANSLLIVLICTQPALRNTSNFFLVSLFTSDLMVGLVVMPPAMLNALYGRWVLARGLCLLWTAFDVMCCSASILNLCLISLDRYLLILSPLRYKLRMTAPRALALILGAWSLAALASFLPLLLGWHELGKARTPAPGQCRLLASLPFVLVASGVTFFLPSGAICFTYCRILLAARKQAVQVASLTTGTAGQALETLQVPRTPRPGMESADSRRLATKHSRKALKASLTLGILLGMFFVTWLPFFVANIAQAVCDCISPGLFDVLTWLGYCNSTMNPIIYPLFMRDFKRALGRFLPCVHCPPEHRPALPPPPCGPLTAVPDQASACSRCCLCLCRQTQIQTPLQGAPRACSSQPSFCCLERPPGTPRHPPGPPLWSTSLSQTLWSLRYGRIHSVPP

[8] = target: 5-HT2a (Homo sapiens, UniProt P28223); conditions: background statement on the known PET ligand; cited from earlier work
Chain of 5-HT2a (P28223 whole entry): as the sequence (P28223 whole entry) above

Free [brain] ([1]; 3 min after dose): 21.5 ng/g | Plasma Conc. ([1]; 3 min after dose): 104.5 ng/mL | Free B/P Ratio ([1]; 3 min after dose): 0.21 | Free [brain] ([1]; 5 min after dose): 23.1 ng/g | Plasma Conc. ([1]; 5 min after dose): 83.5 ng/mL | Free B/P Ratio ([1]; 5 min after dose): 0.28 | pKi [2]: 6.91 | selectivity for 5-HT6 over 5-HT2A [2]: 559 fold | Selectivity for 5-HT6 v. 5-HT2A [2]: 559 x | pKi [3]: 9.66 | half-life [4]: 104 min | pKi [5]: < 6.00 | pKi [6]: 6.84 | selectivity for 5-HT6 over 5-HT2B [6]: 654.5 fold
Compound: CN1CCC(c2cccc3cc(S(=O)(=O)c4ccccn4)cnc23)CC1 [Example 1, 8-(1-methylpiperidin-4-yl)-3-(pyridin-2-ylsulfonyl)quinoline]

Compound: CN1CCN(c2cccc3cc(S(=O)(=O)c4cccc(F)c4)cnc23)CC1 [GSK-215083, reference compound]
pKi [2]: 9.40 | selectivity for 5-HT6 over 5-HT2A [2]: 1.16 fold | Selectivity for 5-HT6 v. 5-HT2A [2]: 1.16 x | pKi [3]: 9.47 | half-life [4]: 62.4 min | pKi [7]: 9.80

Compound: CN1CCN(c2cccc3cc(S(=O)(=O)c4cccc(F)c4)cnc23)CC1 [[^11C]GSK-215083]
pKi [8]: 9.40

Compound: [3H]C([3H])([3H])N1CCC(c2cccc3cc(S(=O)(=O)c4ccccn4)cnc23)CC1 [Example 2, 8-(1-([^3H]methyl)piperidin-4-yl)-3-(pyridin-2-ylsulfonyl)quinoline]
F. Cortex/Cer. (5 min after dose): 0.9 | Hippo./Cer. (5 min after dose): 1.06 | Striatum/Cer. (5 min after dose): 0.81 | F. Cortex/Cer. (40 min after dose): 1.20 | Hippo./Cer. (40 min after dose): 1.07 | Striatum/Cer. (40 min after dose): 1.31
